Structures can show the parent of a compound that is named as a salt. Where two headings read alike, the source gives them in different places.
Experiments:
ALK enzyme = molecular target: T1, ALK enzyme (Homo sapiens, UniProt Q9UM73); experiment: ALK enzymatic activity assay 1; type: biochemical
T1 construct: purchased Invitrogen PV4185
Experimental: ALK Enzymatic Activity Assay 1
Compounds were added at a final concentration of 1% DMSO in half-log dilutions, starting at 20 μM final concentration. The reactions were initiated by the addition of 10 μL of peptide/ATP mix to 10 μL enzyme and 2 μL of compound in 384-well plate. […] On the 12-sipper chip, substrate and phosphorylated product were separated with an upstream voltage of −2650 V, a downstream voltage of −500 V, and a screen pressure of −1.5 psi. The relative peak heights of substrate and product were measured and ratios were calculated using HTS Well Analyzer Software version 5.2.43 from the manufacturer.

cMet enzyme = molecular target: T2, cMet enzyme (Homo sapiens, UniProt P08581); experiment: cMet enzymatic activity assay; type: biochemical; conditions: purified cMet enzyme 7.5 nM, ATP 17 μM (Km)
T2 construct: RTC Lot#032006
T2 sequence (P08581 25-1390): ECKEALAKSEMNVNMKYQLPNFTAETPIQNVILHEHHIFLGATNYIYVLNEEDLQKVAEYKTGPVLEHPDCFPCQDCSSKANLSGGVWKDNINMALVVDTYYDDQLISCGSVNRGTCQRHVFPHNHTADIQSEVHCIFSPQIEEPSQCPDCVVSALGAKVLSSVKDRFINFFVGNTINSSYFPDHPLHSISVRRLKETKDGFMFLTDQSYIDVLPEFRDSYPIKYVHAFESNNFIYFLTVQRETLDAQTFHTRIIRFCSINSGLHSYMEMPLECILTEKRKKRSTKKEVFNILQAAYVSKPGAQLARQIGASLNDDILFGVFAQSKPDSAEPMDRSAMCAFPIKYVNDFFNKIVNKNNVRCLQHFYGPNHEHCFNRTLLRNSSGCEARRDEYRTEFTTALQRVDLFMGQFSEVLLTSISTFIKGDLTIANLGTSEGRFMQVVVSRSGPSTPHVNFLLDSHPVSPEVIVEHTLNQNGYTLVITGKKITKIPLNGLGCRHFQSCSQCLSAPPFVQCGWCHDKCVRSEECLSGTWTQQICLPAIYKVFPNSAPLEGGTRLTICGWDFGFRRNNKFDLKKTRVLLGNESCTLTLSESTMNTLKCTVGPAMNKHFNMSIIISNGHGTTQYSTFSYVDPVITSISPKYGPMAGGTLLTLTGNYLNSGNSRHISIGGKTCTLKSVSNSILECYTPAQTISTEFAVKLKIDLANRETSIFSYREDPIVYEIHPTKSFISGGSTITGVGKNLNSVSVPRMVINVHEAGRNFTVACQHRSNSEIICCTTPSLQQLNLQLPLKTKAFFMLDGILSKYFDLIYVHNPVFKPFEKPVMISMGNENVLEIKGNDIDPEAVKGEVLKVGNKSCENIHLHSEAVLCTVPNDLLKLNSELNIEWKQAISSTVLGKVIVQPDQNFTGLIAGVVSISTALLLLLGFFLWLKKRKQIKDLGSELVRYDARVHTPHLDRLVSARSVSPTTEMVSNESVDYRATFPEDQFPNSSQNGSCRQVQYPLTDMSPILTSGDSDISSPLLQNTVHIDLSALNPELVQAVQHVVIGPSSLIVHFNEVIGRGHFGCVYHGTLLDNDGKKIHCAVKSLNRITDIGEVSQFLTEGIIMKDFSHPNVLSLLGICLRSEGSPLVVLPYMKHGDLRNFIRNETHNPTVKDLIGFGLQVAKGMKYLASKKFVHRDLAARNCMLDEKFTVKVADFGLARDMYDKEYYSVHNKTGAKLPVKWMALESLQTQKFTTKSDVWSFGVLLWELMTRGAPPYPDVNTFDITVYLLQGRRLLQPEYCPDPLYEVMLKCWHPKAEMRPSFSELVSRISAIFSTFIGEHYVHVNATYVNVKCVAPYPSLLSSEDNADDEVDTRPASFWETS
Experimental: cMet Enzymatic Activity Assay
Compounds were added at a final concentration of 2% DMSO in half-log dilutions, starting at 20 μM final concentration. The reactions were initiated by addition of 10 μL of peptide/ATP mix to 10 μL enzyme and 5 μL of compound in 384-well plate. […] Substrate and phosphorylated product were separated with an upstream voltage of −2650 V, a downstream voltage of −500V, and a screen pressure of −1.5 psi. The relative peak heights of substrate and product were measured and ratios were calculated using HTS Well Analyzer Software version 5.2.43 from the manufacturer.

[1] = molecular target: T3, human recombinant wild-type ALK kinase domain (amino acids 1093-1411) (Homo sapiens, UniProt Q9UM73); experiment: ALK enzyme assay 2 (microfluidic mobility shift assay); type: biochemical;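 note: kinase reaction run 1 h at room temperature, conversion quantified by electrophoretic separation of fluorescent peptide substrate from phosphorylated product, about 15-20% turnover without inhibitor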
T3 construct: ALK kinase domain (amino acids 1093-1411); made in house
T3 sequence (Q9UM73 1093-1411): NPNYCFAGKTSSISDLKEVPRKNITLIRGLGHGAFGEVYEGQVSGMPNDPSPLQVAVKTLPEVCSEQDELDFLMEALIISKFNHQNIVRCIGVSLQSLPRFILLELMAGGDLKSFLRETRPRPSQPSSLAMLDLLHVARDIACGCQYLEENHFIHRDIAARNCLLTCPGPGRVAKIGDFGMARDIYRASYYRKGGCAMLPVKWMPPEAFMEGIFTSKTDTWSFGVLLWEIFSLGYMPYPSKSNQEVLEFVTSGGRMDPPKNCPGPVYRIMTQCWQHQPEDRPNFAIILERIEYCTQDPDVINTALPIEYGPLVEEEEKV
Experimental: The reactions were incubated for 1 h at room temperature, stopped by the addition of 0.1 M EDTA, pH 8, and the extent of reactions (˜15-20% conversion with no inhibitor) was determined after electrophoretic separation of the fluorescently labeled peptide substrate and phosphorylated product on an LabChip EZ Reader II (Caliper Life Sciences, Hopkinton, Mass.).

[2] = molecular target: EML4-ALK wt v1 in NIH-3T3 cells (Homo sapiens, UniProt Q9UM73)
Sequence of EML4-ALK wt v1 in NIH-3T3 cells (Q9UM73 with tags, fused parts or gaps): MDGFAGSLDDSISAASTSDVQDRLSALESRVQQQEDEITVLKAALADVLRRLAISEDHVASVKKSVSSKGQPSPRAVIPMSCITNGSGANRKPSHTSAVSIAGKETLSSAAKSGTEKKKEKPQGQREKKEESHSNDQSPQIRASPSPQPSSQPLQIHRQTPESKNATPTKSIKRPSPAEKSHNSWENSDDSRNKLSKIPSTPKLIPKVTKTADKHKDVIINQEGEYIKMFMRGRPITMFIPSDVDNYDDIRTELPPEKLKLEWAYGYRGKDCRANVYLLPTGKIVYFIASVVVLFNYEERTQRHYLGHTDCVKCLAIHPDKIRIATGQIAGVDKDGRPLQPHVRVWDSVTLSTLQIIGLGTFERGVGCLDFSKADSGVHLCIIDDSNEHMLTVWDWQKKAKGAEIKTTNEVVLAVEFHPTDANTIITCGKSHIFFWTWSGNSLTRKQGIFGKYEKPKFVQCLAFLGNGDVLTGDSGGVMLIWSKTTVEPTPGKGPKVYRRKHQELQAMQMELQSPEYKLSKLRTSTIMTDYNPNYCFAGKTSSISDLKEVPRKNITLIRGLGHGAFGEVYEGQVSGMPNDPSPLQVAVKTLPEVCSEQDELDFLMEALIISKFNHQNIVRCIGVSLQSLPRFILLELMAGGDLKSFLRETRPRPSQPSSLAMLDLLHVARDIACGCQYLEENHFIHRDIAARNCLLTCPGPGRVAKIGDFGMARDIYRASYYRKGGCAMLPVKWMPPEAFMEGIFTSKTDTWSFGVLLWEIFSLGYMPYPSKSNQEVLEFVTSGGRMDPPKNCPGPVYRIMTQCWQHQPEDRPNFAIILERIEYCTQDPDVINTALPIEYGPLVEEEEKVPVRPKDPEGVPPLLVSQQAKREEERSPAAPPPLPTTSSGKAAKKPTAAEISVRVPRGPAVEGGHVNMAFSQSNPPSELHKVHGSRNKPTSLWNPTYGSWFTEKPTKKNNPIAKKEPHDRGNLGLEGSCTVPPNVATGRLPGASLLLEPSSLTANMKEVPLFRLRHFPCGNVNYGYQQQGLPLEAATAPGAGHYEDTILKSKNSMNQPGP

T1 sequence (Q9UM73 19-1620): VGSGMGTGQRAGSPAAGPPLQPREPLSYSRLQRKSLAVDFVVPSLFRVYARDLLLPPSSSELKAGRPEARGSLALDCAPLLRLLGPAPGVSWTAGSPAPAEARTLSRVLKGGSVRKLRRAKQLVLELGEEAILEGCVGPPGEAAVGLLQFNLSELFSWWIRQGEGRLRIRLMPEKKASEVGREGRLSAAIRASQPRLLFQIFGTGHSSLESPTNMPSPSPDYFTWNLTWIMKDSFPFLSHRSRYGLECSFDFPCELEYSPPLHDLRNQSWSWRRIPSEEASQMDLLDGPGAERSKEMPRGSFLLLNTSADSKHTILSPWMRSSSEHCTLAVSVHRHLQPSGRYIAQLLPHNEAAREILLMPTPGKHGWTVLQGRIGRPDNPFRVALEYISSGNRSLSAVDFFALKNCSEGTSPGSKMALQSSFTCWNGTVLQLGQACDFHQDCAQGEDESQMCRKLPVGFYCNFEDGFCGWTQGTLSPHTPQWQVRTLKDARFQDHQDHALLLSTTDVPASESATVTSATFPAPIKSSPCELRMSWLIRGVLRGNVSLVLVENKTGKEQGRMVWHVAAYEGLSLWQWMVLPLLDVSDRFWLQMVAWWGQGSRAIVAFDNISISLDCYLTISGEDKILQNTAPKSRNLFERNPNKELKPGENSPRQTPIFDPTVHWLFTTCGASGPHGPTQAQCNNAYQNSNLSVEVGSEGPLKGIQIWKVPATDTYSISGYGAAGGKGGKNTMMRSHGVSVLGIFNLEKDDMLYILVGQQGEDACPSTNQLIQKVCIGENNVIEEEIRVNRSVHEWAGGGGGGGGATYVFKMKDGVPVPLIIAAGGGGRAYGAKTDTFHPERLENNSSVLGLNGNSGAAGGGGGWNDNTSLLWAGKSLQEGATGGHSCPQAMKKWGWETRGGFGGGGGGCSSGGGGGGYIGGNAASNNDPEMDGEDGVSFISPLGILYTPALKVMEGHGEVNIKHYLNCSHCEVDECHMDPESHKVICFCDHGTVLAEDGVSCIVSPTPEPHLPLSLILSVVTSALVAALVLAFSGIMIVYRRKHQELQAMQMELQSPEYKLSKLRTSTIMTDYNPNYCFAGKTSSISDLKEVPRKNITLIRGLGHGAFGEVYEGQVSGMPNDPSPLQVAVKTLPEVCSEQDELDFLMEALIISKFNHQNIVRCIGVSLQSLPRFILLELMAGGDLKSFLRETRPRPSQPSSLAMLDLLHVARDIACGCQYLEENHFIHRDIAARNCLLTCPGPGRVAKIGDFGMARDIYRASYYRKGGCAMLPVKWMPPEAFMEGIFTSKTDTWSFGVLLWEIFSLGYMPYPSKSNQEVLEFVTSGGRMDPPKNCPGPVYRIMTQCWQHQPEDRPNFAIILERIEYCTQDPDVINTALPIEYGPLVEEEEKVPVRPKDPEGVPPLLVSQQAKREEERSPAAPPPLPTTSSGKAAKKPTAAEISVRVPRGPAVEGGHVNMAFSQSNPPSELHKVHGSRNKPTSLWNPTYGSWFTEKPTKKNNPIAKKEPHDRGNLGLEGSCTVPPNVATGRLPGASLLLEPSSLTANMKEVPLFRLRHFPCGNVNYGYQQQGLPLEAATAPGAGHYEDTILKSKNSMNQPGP

## CC(Oc1cc(-c2ccnn2C)nnc1N)c1cc(F)ccc1-n1cccn1 (stereo not drawn) [Example 55, 4-{1-[5-fluoro-2-(1H-pyrazol-1-yl)phenyl]ethoxy}-6-(1-methyl-1H-pyrazol-5-yl)pyridazin-3-amine]
ALK enzyme
  IC50: 87.6 nM
cMet enzyme
  IC50: > 20000 nM
[1]
  Ki: 43 nM
[2]
  IC50: 1760 nM

## COc1ccc(F)cc1C(C)Oc1cc(-c2cnnn2CCO)cnc1N (stereo not drawn) [Example 2, 2-(5-{6-amino-5-[1-(5-fluoro-2-methoxyphenyl)ethoxy]-pyridin-3-yl}-1H-1,2,3-triazol-1-yl)ethanol]
ALK enzyme
  IC50: 135 nM
cMet enzyme
  IC50: > 20000 nM
[1]
  Ki: 220 nM
[2]
  IC50: > 1000 nM

## COc1ccc(F)cc1C(C)Oc1cc(-c2c(C)noc2C)cnc1N (stereo not drawn) [Example 54, 5-(3,5-dimethylisoxazol-4-yl)-3-[1-(5-fluoro-2-methoxyphenyl)-ethoxy]pyridin-2-amine]
ALK enzyme
  IC50: 47.2 nM
cMet enzyme
  IC50: > 18200 nM
[1]
  Ki: 1.3 nM
[2]
  IC50: 194 nM

## COc1ccc(F)cc1[C@@H](C)Oc1cc(-c2c(C)nn(CCO)c2C)cnc1N [Example 53, 2-(4-{6-amino-5-[(1R)-1-(5-fluoro-2-methoxyphenyl)-ethoxy]pyridin-3-yl}-3,5-dimethyl-1H-pyrazol-1-yl)ethanol]
ALK enzyme
  IC50: 27 nM
cMet enzyme
  IC50: 4440 nM
[1]
  Ki: 0.401 nM
[2]
  IC50: 23.3 nM

## COc1ccc(F)cc1[C@@H](C)Oc1cc(-c2c(C)nn(CC(O)CO)c2C)cnc1N (stereo partly drawn) [Example 26, 3-(4-{6-amino-5-[(1R)-1-(5-fluoro-2-methoxyphenyl)-ethoxy]pyridin-3-yl}-3,5-dimethyl-1H-pyrazol-1-yl)propane-1,2-diol]
ALK enzyme
  IC50: 24.1 nM
cMet enzyme
  IC50: 4300 nM
[1]
  Ki: < 0.313 nM
[2]
  IC50: 4.54 nM

## COc1ccc(F)cc1C(C)Oc1cc(-c2c(OC)cnn2C)cnc1N (stereo not drawn) [Example 16, 3-[1-(5-fluoro-2-methoxyphenyl)ethoxy]-5-(4-methoxy-1-methyl-1H-pyrazol-5-yl)pyridin-2-amine]
ALK enzyme
  IC50: 38.1 nM
cMet enzyme
  IC50: 11200 nM
[1]
  Ki: 1.3 nM
[2]
  IC50: 123 nM

## Cc1n[nH]c(C)c1-c1cnc(N)c(OC(C)c2cc(F)ccc2-n2cccn2)c1 (stereo not drawn) [Example 52, 5-(3,5-dimethyl-1H-pyrazol-4-yl)-3-{1-[5-fluoro-2-(1H-pyrazol-1-yl)phenyl]-ethoxy}pyridin-2-amine]
ALK enzyme
  IC50: 73.3 nM
cMet enzyme
  IC50: 10400 nM
[1]
  Ki: 1.1 nM
[2]
  IC50: 14.5 nM

## COc1ncc(F)cc1[C@@H](C)Oc1cc(-c2ccnn2C)cnc1N [Example 34, 3-[(1R)-1-(5-fluoro-2-methoxypyridin-3-yl)ethoxy]-5-(1-methyl-1H-pyrazol-5-yl)pyridin-2-amine]
ALK enzyme
  IC50: 71.1 nM
cMet enzyme
  IC50: > 17800 nM
[1]
  Ki: 3.8 nM
[2]
  IC50: 302 nM

## CC(Oc1cc(-c2ccnn2C)cnc1N)c1cc(F)ccc1-c1ncco1 (stereo not drawn) [Example 62, 3-{1-[5-fluoro-2-(1,3-oxazol-2-yl)phenyl]ethoxy}-5-(1-methyl-1H-pyrazol-5-yl)pyridin-2-amine]
ALK enzyme
  IC50: 50.5 nM
cMet enzyme
  IC50: 2810 nM
[1]
  Ki: 4.52 nM
[2]
  IC50: 191 nM

## COc1ccc(F)cc1C(C)Oc1cc(-c2c(CO)cnn2C)cnc1N (stereo not drawn) [Example 18, (5-{6-amino-5-[1-(5-fluoro-2-methoxyphenyl)ethoxy]pyridin-3-yl}-1-methyl-1H-pyrazol-4-yl)methanol]
ALK enzyme
  IC50: 92.6 nM
cMet enzyme
  IC50: > 20000 nM
[1]
  Ki: 8.1 nM
[2]
  IC50: 421 nM

## CC(Oc1cc(-c2ccnn2C)cnc1N)c1cc(F)cc2cccnc12 (stereo not drawn) [Example 51, 3-[1-(6-fluoroquinolin-8-yl)ethoxy]-5-(1-methyl-1H-pyrazol-5-yl)pyridin-2-amine]
ALK enzyme
  IC50: 45.2 nM
cMet enzyme
  IC50: 7870 nM
[1]
  Ki: 61 nM
[2]
  IC50: 1450 nM

## COc1ccc(F)cc1C(C)Oc1cc(-c2cnn(C)c2CO)cnc1N (stereo not drawn) [Example 12, (4-{6-amino-5-[1-(5-fluoro-2-methoxyphenyl)ethoxy]-pyridin-3-yl}-1-methyl-1H-pyrazol-5-yl)methanol]
ALK enzyme
  IC50: 70.6 nM
cMet enzyme
  IC50: 8420 nM
[1]
  Ki: 2.1 nM
[2]
  IC50: 194 nM

## COc1ccc(F)cc1C(C)Oc1nc(-c2cn(C)c(C)n2)cnc1N (stereo not drawn) [Example 57, 5-(1,2-dimethyl-1H-imidazol-4-yl)-3-[1-(5-fluoro-2-methoxyphenyl)ethoxy]pyrazin-2-amine]
ALK enzyme
  IC50: 58.7 nM
cMet enzyme
  IC50: > 20000 nM
[1]
  Ki: 5.4 nM
[2]
  IC50: 245 nM

## Cc1n[nH]cc1-c1cnc(N)c(OC(C)c2cc(F)ccc2-n2cccn2)c1 (stereo not drawn) [Example 47, 3-{1-[5-fluoro-2-(1H-pyrazol-1-yl)phenyl]-ethoxy}-5-(3-methyl-1H-pyrazol-4-yl)pyridin-2-amine]
ALK enzyme
  IC50: 70.5 nM
cMet enzyme
  IC50: 2850 nM
[1]
  Ki: < 0.2 nM
[2]
  IC50: 45.7 nM

## C=Cn1nnc(C)c1-c1cnc(N)c(OC(C)c2cc(F)ccc2OC)c1 (stereo not drawn) [Example 1, 3-[1-(5-Fluoro-2-methoxyphenyl)ethoxy]-5-(4-methyl-1-vinyl-1H-1,2,3-triazol-5-yl)pyridin-2-amine]
ALK enzyme
  IC50: 61.4 nM
cMet enzyme
  IC50: > 18800 nM
[1]
  Ki: 2.9 nM
[2]
  IC50: 144 nM

## CC(Oc1cc(-c2cn(C)cn2)cnc1N)c1cc(F)ccc1Cl (stereo not drawn) [Example 23, 3-[1-(2-chloro-5-fluorophenyl)-ethoxy]-5-(1-methyMH-imidazol-4-yl)pyridin-2-amine]
ALK enzyme; purified ALK enzyme 10 nM, ATP 25 μM (Km)
  IC50: 271 nM
cMet enzyme
  IC50: > 19100 nM
[1]
  Ki: 45 nM
[2]; read-out: ELISA assay for WT EML4-ALK (IC50), cellular phospho-ALK (Tyr1604), NIH-3T3 EML4-ALK wt v1 cells, 1 hour
  IC50: 1080 nM

## COc1ccc(F)cc1C(C)Oc1cc(-c2cccnc2OCCO)cnc1N (stereo not drawn) [Example 19, 2-{6′-Amino-5′-[1-(5-fluoro-2-methoxy-phenyl)-ethoxy]-[3,3]bipyridinyl-2-yloxy}-ethanol]
ALK enzyme
  IC50: 78.7 nM
cMet enzyme
  IC50: > 19700 nM
[1]
  Ki: 1.05 nM
[2]
  IC50: 53.5 nM

## Cc1n[nH]cc1-c1cnc(N)c(OC(C)c2cc(F)ccc2Cl)c1 (stereo not drawn) [Example 45, 3-[1-(2-chloro-5-fluorophenyl)ethoxy]-5-(3-methyl-1H-pyrazol-4-yl)pyridin-2-amine]
ALK enzyme
  IC50: 75.6 nM
cMet enzyme
  IC50: 4160 nM
[1]
  Ki: 1.57 nM
[2]
  IC50: 106 nM

## CC(Oc1cc(-c2ccnn2C)cnc1N)c1cc(F)ccc1-n1cccn1 (stereo not drawn) [Example 37, 3-{1-[5-fluoro-2-(1H-pyrazol-1-yl)phenyl]-ethoxy}-5-(1-methyl-1H-pyrazol-5-yl)pyridin-2-amine]
ALK enzyme
  IC50: 70.3 nM
cMet enzyme
  IC50: 8090 nM
[1]
  Ki: 1.55 nM
[2]
  IC50: 147 nM

## CC(Oc1cc(-c2ccnn2C)cnc1N)c1cc(F)ccc1C#N (stereo not drawn) [Example 36, 2-(1-{[2-amino-5-(1-methyl-1H-pyrazol-5-yl)pyridin-3-yl]oxy}ethyl)-4-fluorobenzonitrile monohydrochloride]
ALK enzyme
  IC50: 120 nM
cMet enzyme
  IC50: > 15800 nM
[1]
  Ki: 22 nM
[2]
  IC50: 862 nM

## COc1ccc(F)cc1C(C)Oc1nc(-c2nccn2C)cnc1N (stereo not drawn) [Example 60, 3-[1-(5-fluoro-2-methoxyphenyl)ethoxy]-5-(1-methyl-1H-imidazol-2-yl)pyrazin-2-amine]
ALK enzyme
  IC50: 67.3 nM
cMet enzyme
  IC50: > 20000 nM
[1]
  Ki: 6.4 nM
[2]
  IC50: 555 nM

## CC(Oc1cc(-c2ccnn2C)cnc1N)c1cc(F)ccc1C#N (single isomer, unassigned) [Example 44]
ALK enzyme
  IC50: 57 nM
cMet enzyme
  IC50: 6480 nM
[1]
  Ki: 6.9 nM
[2]
  IC50: 411 nM

## COc1ccc(F)cc1C(C)Oc1cc(-c2ccnn2CCO)cnc1N (stereo not drawn) [Example 11, 2-(5-{6-amino-5-[1-(5-fluoro-2-methoxyphenyl)ethoxy]-pyridin-3-yl}-1H-pyrazol-1-yl)ethanol]
ALK enzyme
  IC50: 52.2 nM
cMet enzyme
  IC50: > 20000 nM
[1]
  Ki: 6.3 nM
[2]
  IC50: 245 nM

## COc1ccc(F)cc1C(C)Oc1nc(-c2cn(C)cn2)cnc1N (stereo not drawn) [Example 58, 3-[1-(5-fluoro-2-methoxyphenyl)ethoxy]-5-(1-methyl-1H-imidazol-4-yl)pyrazin-2-amine]
ALK enzyme
  IC50: 86.5 nM
cMet enzyme
  IC50: > 20000 nM
[1]
  Ki: 1.3 nM
[2]
  IC50: 159 nM

## COc1ccc(F)cc1[C@@H](C)Oc1cc(-c2cccnc2CO)cnc1N [Example 27, {6′-amino-5′-[(1R)-1-(5-fluoro-2-methoxyphenyl)-ethoxy]-3,3′-bipyridin-2-yl}methanol]
ALK enzyme
  IC50: 47.3 nM
cMet enzyme
  IC50: > 15400 nM
[1]
  Ki: 3.1 nM
[2]
  IC50: 138 nM

## COc1ccc(F)cc1C(C)Oc1cc(-c2cccn(C)c2=O)cnc1N (stereo not drawn) [Example 15, 6′-amino-5′-[1-(5-fluoro-2-methoxyphenyl)ethoxy]-1-methyl-3,3′-bipyridin-2(1H)-one]
ALK enzyme
  IC50: 177 nM
cMet enzyme
  IC50: > 20000 nM
[1]
  Ki: 16 nM
[2]
  IC50: 904 nM

## COc1ncc(F)cc1C(C)Oc1cc(-c2c[nH]nc2C)cnc1N (stereo not drawn) [Example 41, 3-[1-(5-fluoro-2-methoxypyridin-3-yl)ethoxy]-5-(3-methyl-1H-pyrazol-4-yl)pyridin-2-amine]
ALK enzyme
  IC50: 15.7 nM
cMet enzyme
  IC50: 5590 nM
[1]
  Ki: 0.922 nM
[2]
  IC50: 58.6 nM

From patent publication US8916593B2, “Alkoxy-substituted 2-aminopyridines as ALK inhibitors” (Pfizer Inc., priority 2010, dated 2014)
